From patent publication US4164576A, “Benzoxazine carboxamides” (Shell Oil Company, priority 1978, dated 1979)

Tested on: swine adipose tissue
Assay: Inhibition of lipogenesis (lipid synthesis from glucose-U-14C) in swine adipose tissue slices
Format: cell-based
Conditions: Sus scrofa, 100 micrograms per milliliter, 37° C., 2 hours, 5% DMSO, insulin, triplicate, read-out: Percent Inhibition of lipogenesis compared to control
Excerpt: The manner in which they cause this effect is not known with certainty; it is believed that they interfere with the synthesis of fatty acids in the tissues. Their effectiveness for this purpose has been ascertained by immersing samples of swine adipose tissue in a liquid medium containing radioactive glucose and the test chemical for a period of time, then isolating the lipid from the treated tissue and determining the up-take of the radio-active carbon by means of scintillation counting techniques. These tests were conducted in swine adipose tissue because in swine, the primary site of lipogenesis--i.e., fatty acid synthesis--appears to be adipose tissue.
Described in more detail, the tests were conducted according to the following general procedure:
150 milligrams of slices of swine adipose tissue were incubated at 37° C. for 2 hours with shaking in 3 milliliters of Krebs-Rringer bicarbonate solution containing one-half the normal calcium ion concentration, 60 micromoles of glucose, 0.5 micro-Curie of glucose-U^14 C, and 300 microunits of insulin, and 5% dimethyl sulfoxide (DMSO). The test compounds were added as a solution or suspension in DMSO and were present at a concentration of 100 micrograms per milliliter of the incubation mixture.
The incubation was terminated by addition of 0.25 milliliter of 1 N sulfuric acid. The resulting mixture was extracted with a total of 25 milliliters of chloroform: methanol (2:1 v/v). The extracts were washed according to Folch et al. (J. Biol. Chem., 226, 497-509, (1957)), air dried, and counted in a liquid scintillation counter with 15 milliliters of counting fluid (two parts toluene containing 0.4% w/v New England Nuclear Omnifluor: 1 part Triton X-100). The tests were conducted in triplicate and were accompanied by control tests in which all ingredients,proportions and conditions were the same except that no test compound was included. From the data obtained were calculated the percent inhibition of lipid synthesis by the test compounds in each case. The data obtained from the tests are set out in Table 1, as the percent inhibition of lipogenesis compared to the results obtained in the control tests wherein only the test compound was omitted.

Structure (SMILES) | inhibition at 100 µg/mL [%]
C=CCNC(=O)C1CNc2ccccc2O1 (centres unmarked) [Compound 1, 3,4-dihydro-N-(2-propenyl)-2H-1,4-benzoxazine-2-carboxamide] | 51
C=CCNC(=O)C1CN(C)c2ccccc2O1 (centres unmarked) [Compound 2, 3,4-dihydro-4-methyl-N-(2-propenyl)-2H-1,4-benzoxazine-2-carboxamide] | 40
C=CCNC(=O)C1CNc2cc(Cl)ccc2O1 (centres unmarked) [Compound 3, 6-chloro-3,4-dihydro-N-(2-propenyl)-2H-1,4-benzoxazine-2-carboxamide] | 63
C=CCNC(=O)C1CNc2cc(C)ccc2O1 (centres unmarked) [Compound 4, 6-methyl-3,4-dihydro-N-(2-propenyl)-2H-1,4-benzoxazine-2-carboxamide] | 57
C=CCNC(=O)C1CNc2cc(NS(C)(=O)=O)ccc2O1 (centres unmarked) [Compound 5, 3,4-dihydro-6-((methylsulfonyl)amino)-N-(2-propenyl)-2H-1,4-benzoxazine-2-carboxamide] | 40
C=CCNC(=O)C1CNc2cc(C(F)(F)F)ccc2O1 (centres unmarked) [Compound 6, 6-(trifluoromethyl)-3,4-dihydro-N-(2-propenyl)-2H-1,4-benzoxazine-2-carboxamide] | 57
C=CCNC(=O)C1CNc2cc(OC)ccc2O1 (centres unmarked) [Compound 7, 3,4-dihydro-6-methoxy-N-(2-propenyl)-2H-1,4-benzoxazine-2-carboxamide] | 76
C=CCNC(=O)C1CNc2cccc(Cl)c2O1 (centres unmarked) [Compound 8, 8-chloro-3,4-dihydro-N-(2-propenyl)-2H-1,4-benzoxazine-2-carboxamide] | 24
C=CCNC(=O)C1CNc2cc(Cl)c(Cl)cc2O1 (centres unmarked) [Compound 9, 6,7-dichloro-3,4-dihydro-N-(2-propenyl)-2H-1,4-benzoxazine-2-carboxamide] | 44
C=CCNC(=O)C1CNc2ccc(C)cc2O1 (centres unmarked) [Compound 10, 3,4-dihydro-7-methyl-N-(2-propenyl)-2H-1,4-benzoxazine-2-carboxamide] | 21
C=CCNC(=O)C1CNc2cc(-c3ccccc3)ccc2O1 (centres unmarked) [Compound 11, 3,4-dihydro-6-phenyl-N-(2-propenyl)-2H-1,4-benzoxazine-2-carboxamide] | 70
